Data reported in patent publication US10800782B2, “Inhibitors of cellular metabolic processes” (Agios Pharmaceuticals, Inc., priority 2016, dated 2020).

Molecular target: T1, MAT2A (Homo sapiens, UniProt P31153)
T1 construct: His6; made in house; host or cells: SF9 insect cells
Experiment: MAT2A biochemical assay (colorimetric inorganic phosphate detection, PiColorLock)
Settings: recombinant His6-tagged MAT2A 1 μg/ml; 60 minutes preincubation at 25° C.; L-Met 80 μM, ATP 100 μM; 60 minutes reaction; read at 623 nm; read-out: MAT2A Inhibition Score
How it was run: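 His6-tagged human MAT2A (SF9-expressed, 1 μg/ml) converting L-Met and ATP to SAM in Tris pH 8.0, 50 mM KCl, 15 mM MgCl2, 300 uM EDTA, 0.005% BSA; 60 min at room temperature. Released phosphate detected colorimetrically with malachite green phosphomolybdate. Ten-point, three-fold compound dilution series.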

T1 sequence (P31153 whole entry): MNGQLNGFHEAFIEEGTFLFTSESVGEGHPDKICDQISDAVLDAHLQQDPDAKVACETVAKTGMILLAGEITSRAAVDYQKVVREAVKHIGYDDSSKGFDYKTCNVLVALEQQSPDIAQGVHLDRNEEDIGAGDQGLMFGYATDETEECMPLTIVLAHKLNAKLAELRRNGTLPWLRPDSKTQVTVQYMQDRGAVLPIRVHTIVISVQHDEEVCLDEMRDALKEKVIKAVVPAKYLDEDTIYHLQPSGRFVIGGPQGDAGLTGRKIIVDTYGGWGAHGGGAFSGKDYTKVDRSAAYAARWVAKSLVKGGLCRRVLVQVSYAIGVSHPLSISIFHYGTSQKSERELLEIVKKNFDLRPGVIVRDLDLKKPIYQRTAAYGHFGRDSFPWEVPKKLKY

How did the IC50 turn out when `COc1ccc(-c2c(Nc3cc(N)[nH]n3)[nH]c3c(-c4ccccc4)c(-c4ccccc4)nn3c2=O)cc1` [Compound 186, 5-((5-amino-1H-pyrazol-3-yl)amino)-6-(4-methoxyphenyl)-2,3-diphenylpyrazolo[1,5-a]pyrimidin-7(4H)-one] was run?
Its IC50 is < 0.1 µM.

For `O=c1c(-c2ccc3ncccc3c2)c(Nc2cc[nH]n2)[nH]c2c(-c3ccccc3)c(-c3ccccc3)nn12` [Compound 187, 5-((1H-pyrazol-3-yl)amino)-2,3-diphenyl-6-(quinolin-6-yl)pyrazolo[1,5-a]pyrimidin-7(4H)-one], which IC50 is on record?
The IC50 was < 0.1 µM.

How did the IC50 turn out when `Cc1cc(Nc2[nH]c3c(-c4ccccc4)c(-c4ccccc4)nn3c(=O)c2-c2ccc3ncccc3c2)n[nH]1` [Compound 188, 5-((5-methyl-1H-pyrazol-3-yl)amino)-2,3-diphenyl-6-(quinolin-6-yl)pyrazolo[1,5-a]pyrimidin-7(4H)-one] was run?
The IC50 was < 0.1 µM.

How did the IC50 turn out when `COc1ccc(-c2c(Nc3ccn[nH]3)[nH]c3c(C4=CCCCC4)c(-c4ccccc4)nn3c2=O)cc1` [Compound 189, 5-((1H-pyrazol-5-yl)amino)-3-(cyclohex-1-en-1-yl)-6-(4-methoxyphenyl)-2-phenyl pyrazolo[1,5-a]pyrimidin-7(4H)-one] was run?
Its IC50 is < 0.1 µM.

For `O=c1c(-c2ccc3ncccc3c2)c(Nc2ccn[nH]2)[nH]c2c(C3=CCCCC3)c(-c3ccccc3)nn12` [Compound 190, 5-((1H-pyrazol-5-yl)amino)-3-(cyclohex-1-en-1-yl)-2-phenyl-6-(quinolin-6-yl)pyrazolo[1,5-a]pyrimidin-7(4H)-one], which IC50 is on record?
The IC50 was < 0.1 µM.

For `O=c1c(-c2ccc3nccnc3c2)c(Nc2ccn[nH]2)[nH]c2c(C3=CCCCC3)c(-c3ccccc3)nn12` [Compound 191, 5-((1H-pyrazol-5-yl)amino)-3-(cyclohex-1-en-1-yl)-2-phenyl-6-(quinoxalin-6-yl)pyrazolo[1,5-a]pyrimidin-7(4H)-one], which IC50 is on record?
The IC50 was < 0.1 µM.

With `COc1ccc(-c2c(Nc3cscn3)[nH]c3c(-c4ccccc4)c(-c4ccccc4)nn3c2=O)cc1` [Compound 192, 6-(4-methoxyphenyl)-2,3-diphenyl-5-(thiazol-4-ylamino)pyrazolo[1,5-a]pyrimidin-7(4H)-one] as the compound, how does the IC50 read?
The IC50 was < 0.1 µM.

With `O=c1c(-c2ccc(O)cc2)c(Nc2cc[nH]n2)[nH]c2c(-c3ccccc3)c(-c3ccccc3)nn12` [Compound 193, 5-((1H-pyrazol-3-yl)amino)-6-(4-hydroxyphenyl)-2,3-diphenylpyrazolo[1,5-a]pyrimidin-7(4H)-one] as the compound, how does the IC50 read?
The IC50 was < 0.1 µM.

Which IC50 does the source give for `O=c1c(-c2ccc(O)cc2)c(Nc2cnccn2)[nH]c2c(C3=CCCCC3)c(-c3ccccc3)nn12` [Compound 194, 3-cyclohexenyl-6-(4-hydroxyphenyl)-2-phenyl-5-(pyrazin-2-ylamino)pyrazolo[1,5-a]pyrimidin-7(4H)-one] here?
Its IC50 is < 0.1 µM.

How did the IC50 turn out when `O=c1c(-c2ccc(O)cc2)c(Nc2nc[nH]n2)[nH]c2c(-c3ccccc3)c(-c3ccccc3)nn12` [Compound 195, 5-((1H-1,2,4-triazol-3-yl)amino)-6-(4-hydroxyphenyl)-2,3-diphenylpyrazolo[1,5-a]pyrimidin-7(4H)-one] was run?
The IC50 was < 0.1 µM.

Which IC50 does the source give for `Cc1nc2ccc(-c3c(Nc4ccccn4)[nH]c4c(-c5ccccc5)c(-c5ccccc5)nn4c3=O)cc2s1` [Compound 196, 6-(2-methylbenzo[d]thiazol-6-yl)-2,3-diphenyl-5-(pyridin-2-ylamino)pyrazolo[1,5-a]pyrimidin-7(4H)-one] here?
Its IC50 is < 0.1 µM.

How did the IC50 turn out when `O=c1c(-c2ccc3c(c2)NCCO3)c(Nc2ccccn2)[nH]c2c(-c3ccccc3)c(-c3ccccc3)nn12` [Compound 197, 6-(3,4-dihydro-2H-benzo[b][1,4]oxazin-6-yl)-2,3-diphenyl-5-(pyridin-2-ylamino) pyrazolo[1,5-a]pyrimidin-7(4H)-one] was run?
Its IC50 is < 0.1 µM.

Which IC50 does the source give for `CN1CCOc2ccc(-c3c(Nc4ccccn4)[nH]c4c(-c5ccccc5)c(-c5ccccc5)nn4c3=O)cc21` [Compound 198, 6-(4-methyl-3,4-dihydro-2H-benzo[b][1,4]oxazin-6-yl)-2,3-diphenyl-5-(pyridin-2-ylamino)pyrazolo[1,5-a]pyrimidin-7(4H)-one] here?
Its IC50 is < 0.1 µM.

Which IC50 does the source give for `CCNC(=O)c1nnc(Nc2[nH]c3c(-c4ccccc4)c(-c4ccccc4)nn3c(=O)c2-c2ccc3ncccc3c2)o1` [Compound 199, N-ethyl-5-((7-oxo-2,3-diphenyl-6-(quinolin-6-yl)-4,7-dihydropyrazolo[1,5-a]pyrimidin-5-yl)amino)-1,3,4-oxadiazole-2-carboxamide] here?
Its IC50 is < 0.1 µM.

Which IC50 does the source give for `COc1ccc(-c2c(N/C(N)=N/O)[nH]c3c(-c4ccccc4)c(-c4ccccc4)nn3c2=O)cc1` [Compound 200, (E)-2-hydroxy-1-(6-(4-methoxyphenyl)-7-oxo-2,3-diphenyl-4,7-dihydropyrazolo[1,5-a]pyrimidin-5-yl)guanidine] here?
Its IC50 is < 0.1 µM.

`COc1ccc(-c2c(Nc3ccn(COC(=O)[C@@H](N)C(C)C)n3)[nH]c3c(-c4ccccc4)c(-c4ccccc4)nn3c2=O)cc1` [Compound 201, (S)-(3-((6-(4-methoxyphenyl)-7-oxo-2,3-diphenyl-4,7-dihydropyrazolo[1,5-a]pyrimidin-5-yl)amino)-1H-pyrazol-1-yl)methyl 2-amino-3-methylbutanoate] was tested. Which IC50 did it give?
The IC50 was < 0.1 µM.

How did the IC50 turn out when `COc1ccc(-c2c(Nc3ccccn3)[nH]c3c(C4=CCCCC4)c(-c4ccccn4)nn3c2=O)cc1` [Compound 203, 3-(cyclohex-1-en-1-yl)-6-(4-methoxyphenyl)-2-(pyridin-2-yl)-5-(pyridin-2-ylamino)pyrazolo[1,5-a]pyrimidin-7(4H)-one] was run?
The IC50 was < 0.1 µM.

`Cc1[nH]c2c(-c3ccccc3)c(-c3ccccc3)nn2c(=O)c1-c1ccc2ncccc2c1` [Compound 204, 5-methyl-2,3-diphenyl-6-(quinolin-6-yl)pyrazolo[1,5-a]pyrimidin-7(4H)-one] was tested. Which IC50 did it give?
Its IC50 is < 0.1 µM.

For `Cc1[nH]c2c(-c3ccccc3)c(-c3ccccc3F)nn2c(=O)c1-c1ccc2ncccc2c1` [Compound 205, 2-(2-fluorophenyl)-5-methyl-3-phenyl-6-(quinolin-6-yl)pyrazolo[1,5-a]pyrimidin-7(4H)-one], which IC50 is on record?
Its IC50 is < 0.1 µM.

`Cc1[nH]c2c(N3CCCCC3)c(-c3ccccc3)nn2c(=O)c1-c1ccc2ncccc2c1` [Compound 206, 5-methyl-2-phenyl-3-(piperidin-1-yl)-6-(quinolin-6-yl)pyrazolo[1,5-a]pyrimidin-7(4H)-one] was tested. Which IC50 did it give?
The IC50 was < 0.1 µM.

Which IC50 does the source give for `Cc1[nH]c2c(N3CCC(F)(F)CC3)c(-c3ccccc3)nn2c(=O)c1-c1ccc2ncccc2c1` [Compound 207, 3-(4,4-difluoropiperidin-1-yl)-5-methyl-2-phenyl-6-(quinolin-6-yl)pyrazolo[1,5-a]pyrimidin-7(4H)-one] here?
Its IC50 is < 0.1 µM.

How did the IC50 turn out when `Cc1[nH]c2c(C3=CCCCC3)c(-c3ccccc3)nn2c(=O)c1-c1ccc2nccnc2c1` [Compound 208, 3-(cyclohex-1-en-1-yl)-5-methyl-2-phenyl-6-(quinoxalin-6-yl)pyrazolo[1,5-a]pyrimidin-7(4H)-one] was run?
Its IC50 is < 0.1 µM.

How did the IC50 turn out when `COc1ccc(-c2c(C)[nH]c3c(-c4ccccc4)c(-c4ccccc4)nn3c2=O)cc1` [Compound 209, 6-(4-methoxyphenyl)-5-methyl-2,3-diphenylpyrazolo[1,5-a]pyrimidin-7(4H)-one] was run?
The IC50 was < 0.1 µM.

For `CCOc1ccc(-c2c(C)[nH]c3c(-c4ccccc4)c(-c4ccccc4)nn3c2=O)cc1` [Compound 210, 6-(4-ethoxyphenyl)-5-methyl-2,3-diphenylpyrazolo[1,5-a]pyrimidin-7(4H)-one], which IC50 is on record?
Its IC50 is < 0.1 µM.

How did the IC50 turn out when `Cc1[nH]c2c(-c3ccccc3)c(-c3ccccc3)nn2c(=O)c1-c1ccc2c(c1)OCCO2` [Compound 211, 6-(2,3-dihydrobenzo[b][1,4]dioxin-6-yl)-5-methyl-2,3-diphenylpyrazolo[1,5-a]pyrimidin-7(4H)-one] was run?
Its IC50 is < 0.1 µM.

Which IC50 does the source give for `COc1ccc(-c2c(C)[nH]c3c(C4=CCCCC4)c(-c4ccccc4)nn3c2=O)cc1` [Compound 212, 3-(cyclohex-1-en-1-yl)-6-(4-methoxyphenyl)-5-methyl-2-phenylpyrazolo[1,5-a]pyrimidin-7(4H)-one] here?
The IC50 was < 0.1 µM.

Which IC50 does the source give for `COc1ccc(-c2c(C)[nH]c3c(N4CCC(F)(F)CC4)c(-c4ccccc4)nn3c2=O)cc1` [Compound 213, 3-(4,4-difluoropiperidin-1-yl)-6-(4-methoxyphenyl)-5-methyl-2-phenylpyrazolo[1,5-a]pyrimidin-7(4H)-one] here?
Its IC50 is < 0.1 µM.

For `Cc1[nH]c2c(C3=CCCC3)c(-c3ccccc3)nn2c(=O)c1-c1ccc2ncccc2c1` [Compound 215, 3-(cyclopent-1-en-1-yl)-5-methyl-2-phenyl-6-(quinolin-6-yl)pyrazolo[1,5-a]pyrimidin-7(4H)-one], which IC50 is on record?
Its IC50 is < 0.1 µM.

`Cc1[nH]c2c(C3=CCCCC3)c(-c3ccccc3)nn2c(=O)c1-c1ccc2ncccc2c1` [Compound 216, 3-(cyclohex-1-en-1-yl)-5-methyl-2-phenyl-6-(quinolin-6-yl)pyrazolo[1,5-a]pyrimidin-7(4H)-one] was tested. Which IC50 did it give?
The IC50 was < 0.1 µM.

How did the IC50 turn out when `Cc1[nH]c2c(C3=CCCCO3)c(-c3ccccc3)nn2c(=O)c1-c1ccc2ncccc2c1` [Compound 217, 3-(3,4-dihydro-2H-pyran-6-yl)-5-methyl-2-phenyl-6-(quinolin-6-yl)pyrazolo[1,5-a]pyrimidin-7(4H)-one] was run?
The IC50 was < 0.1 µM.

How did the IC50 turn out when `COc1ccc(-c2c(C)[nH]c3c(C4=CCOCC4)c(-c4ccccc4)nn3c2=O)cc1` [Compound 218, 3-(3,6-dihydro-2H-pyran-4-yl)-6-(4-methoxyphenyl)-5-methyl-2-phenylpyrazolo[1,5-a]pyrimidin-7(4H)-one] was run?
Its IC50 is < 0.1 µM.

How did the IC50 turn out when `COc1ccc(-c2c(C)[nH]c3c(C4=CCCOC4)c(-c4ccccc4)nn3c2=O)cc1` [Compound 219, 3-(5,6-dihydro-2H-pyran-3-yl)-6-(4-methoxyphenyl)-5-methyl-2-phenylpyrazolo[1,5-a]pyrimidin-7(4H)-one] was run?
Its IC50 is < 0.1 µM.

`COc1ccc(-c2c(C)[nH]c3c(-c4cc[nH]c4)c(-c4ccccc4)nn3c2=O)cc1` [Compound 220, 6-(4-methoxyphenyl)-5-methyl-2-phenyl-3-(1H-pyrrol-3-yl)pyrazolo[1,5-a]pyrimidin-7(4H)-one] was tested. Which IC50 did it give?
The IC50 was < 0.1 µM.
